In patent publication US9670194B2 (Calitor Sciences, LLC, priority 2013, dated 2017):

Key:
[1] = Compound stability in human liver microsomes; format: in vitro ADME; conditions: for half-life at 5 μM: human liver microsomes 0.5 mg protein/mL, compound 5 μM, NADPH 1.0 mM, 37° C.; for CLint scaled at 5 μM: human liver microsomes, in vivo CLint extrapolated
[2] = Compound stability in rat liver microsomes; format: in vitro ADME; conditions: pH 7.4; for half-life at 5 μM: rat liver microsomes 0.5 mg protein/mL, compound 5 μM, NADPH 1.0 mM, 37° C.; for CLint scaled at 5 μM: rat liver microsomes, in vivo CLint extrapolated
[3] = Pharmacokinetics after intravenous and oral administration in rats; format: in vivo, rat; conditions: for clearance (CL) / AUC(0-t) / half-life / Vd: iv dosing, dose 1 mg/kg; for bioavailability / AUC(0-t) / half-life / Vd: rat, plasma; for bioavailability: iv dose 1 mg/kg, oral dose generally 5 or 10 mg/kg; for Vd: read-out: Vss
PI3K (p110β/p85α) (h) = PI3K (p110β/p85α) (h) (Homo sapiens (Human), UniProt P42338); test: PI3K (p110β/p85α) (h) non-radioactive HTRF kinase assay; format: biochemical
PI3K (p110δ/p85α) (h) = PI3K (p110δ/p85α) (h) (Homo sapiens (Human), UniProt O00329); test: PI3K (p110δ/p85α) (h) non-radioactive HTRF kinase assay; format: biochemical
Chain of PI3K (p110δ/p85α) (h) (O00329 whole entry): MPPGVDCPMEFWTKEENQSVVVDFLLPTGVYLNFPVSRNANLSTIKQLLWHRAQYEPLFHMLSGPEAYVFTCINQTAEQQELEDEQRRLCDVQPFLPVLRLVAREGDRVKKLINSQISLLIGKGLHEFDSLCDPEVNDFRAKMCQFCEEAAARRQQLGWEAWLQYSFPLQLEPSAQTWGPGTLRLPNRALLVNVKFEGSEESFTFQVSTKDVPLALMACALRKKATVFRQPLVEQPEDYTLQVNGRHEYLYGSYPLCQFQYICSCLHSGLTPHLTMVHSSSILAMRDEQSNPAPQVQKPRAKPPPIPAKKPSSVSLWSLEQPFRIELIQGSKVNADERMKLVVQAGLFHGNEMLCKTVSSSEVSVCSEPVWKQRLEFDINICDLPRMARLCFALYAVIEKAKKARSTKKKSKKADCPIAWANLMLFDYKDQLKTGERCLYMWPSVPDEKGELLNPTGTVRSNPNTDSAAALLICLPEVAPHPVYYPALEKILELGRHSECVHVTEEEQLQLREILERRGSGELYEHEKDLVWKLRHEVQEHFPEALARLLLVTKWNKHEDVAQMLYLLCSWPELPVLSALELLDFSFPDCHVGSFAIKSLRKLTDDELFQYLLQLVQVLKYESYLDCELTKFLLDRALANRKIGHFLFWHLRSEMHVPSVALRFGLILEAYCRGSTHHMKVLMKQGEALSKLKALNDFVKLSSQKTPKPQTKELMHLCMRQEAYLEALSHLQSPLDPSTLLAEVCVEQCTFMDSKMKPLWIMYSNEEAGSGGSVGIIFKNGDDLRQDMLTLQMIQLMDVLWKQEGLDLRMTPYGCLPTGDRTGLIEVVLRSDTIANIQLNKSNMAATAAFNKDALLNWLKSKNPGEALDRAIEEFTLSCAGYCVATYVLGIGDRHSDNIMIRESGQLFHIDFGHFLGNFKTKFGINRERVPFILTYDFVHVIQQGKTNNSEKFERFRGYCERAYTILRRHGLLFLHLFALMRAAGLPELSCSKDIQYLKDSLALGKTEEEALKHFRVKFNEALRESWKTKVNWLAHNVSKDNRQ
Chain of PI3K (p110δ/p85α) (h) (P27986 whole entry partner): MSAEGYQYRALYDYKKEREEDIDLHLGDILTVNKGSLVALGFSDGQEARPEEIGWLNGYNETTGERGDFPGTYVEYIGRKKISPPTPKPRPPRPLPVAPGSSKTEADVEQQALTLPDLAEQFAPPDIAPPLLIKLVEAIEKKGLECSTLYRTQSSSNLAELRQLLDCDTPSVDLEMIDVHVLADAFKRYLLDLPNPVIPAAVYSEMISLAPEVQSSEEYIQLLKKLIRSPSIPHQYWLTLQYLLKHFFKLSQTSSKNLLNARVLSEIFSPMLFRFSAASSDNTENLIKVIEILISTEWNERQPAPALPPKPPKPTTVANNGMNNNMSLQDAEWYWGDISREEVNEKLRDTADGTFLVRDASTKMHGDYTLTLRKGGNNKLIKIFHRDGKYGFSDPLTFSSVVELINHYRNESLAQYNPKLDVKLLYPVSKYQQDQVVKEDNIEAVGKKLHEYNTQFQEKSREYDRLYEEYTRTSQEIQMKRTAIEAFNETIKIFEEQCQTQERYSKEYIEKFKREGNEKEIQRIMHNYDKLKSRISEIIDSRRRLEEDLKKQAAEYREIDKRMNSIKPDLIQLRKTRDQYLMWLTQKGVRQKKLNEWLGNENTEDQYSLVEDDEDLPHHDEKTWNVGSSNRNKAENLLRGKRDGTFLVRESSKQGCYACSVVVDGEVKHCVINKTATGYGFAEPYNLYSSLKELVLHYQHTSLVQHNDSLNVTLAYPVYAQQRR

Chain of PI3K (p110β/p85α) (h) (P42338 whole entry): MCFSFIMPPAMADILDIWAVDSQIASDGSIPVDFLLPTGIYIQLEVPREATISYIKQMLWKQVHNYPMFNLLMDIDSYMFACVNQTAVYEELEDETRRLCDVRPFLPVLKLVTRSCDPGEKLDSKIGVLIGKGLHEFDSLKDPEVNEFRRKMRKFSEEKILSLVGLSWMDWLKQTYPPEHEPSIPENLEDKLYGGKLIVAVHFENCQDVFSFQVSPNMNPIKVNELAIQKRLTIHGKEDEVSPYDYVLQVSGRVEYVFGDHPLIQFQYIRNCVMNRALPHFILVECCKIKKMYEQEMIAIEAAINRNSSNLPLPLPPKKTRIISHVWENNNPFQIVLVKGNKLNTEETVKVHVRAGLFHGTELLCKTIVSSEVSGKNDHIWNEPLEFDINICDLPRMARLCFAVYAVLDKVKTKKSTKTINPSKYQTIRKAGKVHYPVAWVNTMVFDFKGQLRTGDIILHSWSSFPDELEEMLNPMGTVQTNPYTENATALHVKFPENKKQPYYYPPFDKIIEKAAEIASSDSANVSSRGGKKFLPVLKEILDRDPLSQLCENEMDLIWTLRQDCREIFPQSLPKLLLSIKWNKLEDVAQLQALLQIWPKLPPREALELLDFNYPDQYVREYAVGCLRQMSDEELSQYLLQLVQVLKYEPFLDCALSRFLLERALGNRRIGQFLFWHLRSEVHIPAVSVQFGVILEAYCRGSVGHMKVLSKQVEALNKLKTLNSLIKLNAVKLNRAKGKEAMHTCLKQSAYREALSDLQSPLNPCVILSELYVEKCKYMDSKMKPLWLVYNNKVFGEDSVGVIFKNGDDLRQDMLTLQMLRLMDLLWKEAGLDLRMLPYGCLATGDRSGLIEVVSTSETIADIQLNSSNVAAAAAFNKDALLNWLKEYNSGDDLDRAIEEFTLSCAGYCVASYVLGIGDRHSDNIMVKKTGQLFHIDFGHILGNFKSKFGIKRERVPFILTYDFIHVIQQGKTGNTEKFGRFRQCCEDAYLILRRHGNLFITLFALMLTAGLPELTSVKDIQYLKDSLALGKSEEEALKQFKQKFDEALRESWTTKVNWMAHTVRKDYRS
Chain of PI3K (p110β/p85α) (h) (P27986 whole entry partner): as the sequence (P27986 whole entry partner) above

| SMILES | half-life at 5 μM [1] | CLint scaled at 5 μM [1] | half-life at 5 μM [2] | CLint scaled at 5 μM [2] | clearance (CL) [3] | bioavailability [3] | AUC(0-t) [3] | half-life [3] | Vd [3] | IC50 (PI3K (p110β/p85α) (h)) | IC50 (PI3K (p110δ/p85α) (h)) |
| --- | --- | --- | --- | --- | --- | --- | --- | --- | --- | --- | --- |
| CC[C@H](Nc1ncnc(N)c1C1=N[C@@H](C)CO1)c1nc2cccc(Cl)c2c(=O)n1-c1ccccc1 [Ex. 6, 2-((S)-1((6-amino-5-((S)-4-methyl-4,5-dihydrooxazol-2-yl)pyrimidin-4-yl)amino)propyl)-5-chloro-3-phenylquinazolin-4(3H)-one] | 3.11 min | 560 mL/min/kg | 3.44 min | 722 mL/min/kg | 110 mL/min/kg | 5.56% | 151 ng·h/mL | 69 min | 6.75 L/kg | > 3000 nM | 99 nM |
| CC[C@H](Nc1ncnc(N)c1-c1ncc(C)o1)c1nc2cccc(Cl)c2c(=O)n1C1CC1 [Ex. 7, (S)-2-(1-((6-amino-5-(5-methyloxazol-2-yl)pyrimidin-4-yl)amino)propyl)-5-chloro-3-cyclopropylquinazolin-4(3H)-one] | 19.4 min | 89.7 mL/min/kg | 10.5 min | 237 mL/min/kg | 54.8 mL/min/kg | 45.7% | 300 ng·h/mL | 79.8 min | 5.82 L/kg | 2780 nM | 246 nM |
| Cc1nc(-c2c(N)ncnc2N[C@@H](C)c2nc3cccc(Cl)c3c(=O)n2C2CC2)no1 [Ex. 33, (S)-2-(1-((6-amino-5-(5-methyl-1,2,4-oxadiazol-3-yl)pyrimidin-4-yl)amino)-ethyl)-5-chloro-3-cyclopropylquinazolin-4(3H)-one] | 11.9 min | 146 mL/min/kg | 8.68 min | 286 mL/min/kg | 65.5 mL/min/kg | 5.59% | 241 ng·h/mL | 432 min | 14.3 L/kg |  | 67 nM |
| CC[C@H](Nc1ncnc(N)c1-c1ccn(C)n1)c1nc2cccc(Cl)c2c(=O)n1C1CC1 [Ex. 51, (S)-2-(1-((6-amino-5-(1-methyl-1H-pyrazol-3-yl)pyrimidin-4-yl)amino)propyl)-5-chloro-3-cyclopropylquinazolin-4(3H)-one] | 22.6 min | 76.9 mL/min/kg | 18.2 min | 136 mL/min/kg | 27.3 mL/min/kg | 59.8% | 609 ng·h/mL | 115 min | 1.64 L/kg |  | 135 nM |
| C[C@H](Nc1ncnc(N)c1-c1ncn(C)n1)c1nc2cccc(Cl)c2c(=O)n1C1CC1 [Ex. 44, (S)-2-(1-((6-amino-5-(1-methyl-1H-1,2,4-triazol-3-yl)pyrimidin-4-yl)amino)-ethyl)-5-chloro-3-cyclopropylquinazolin-4(3H)-one] | 13.6 min | 128 mL/min/kg | 13 min | 191 mL/min/kg | 73.7 mL/min/kg | 14% | 231 ng·h/mL | 34.2 min | 2.51 L/kg |  | 358 nM |
| CC[C@H](Nc1ncnc(N)c1-c1ncn(C)n1)c1nc2cccc(F)c2c(=O)n1C1CC1 [Ex. 26, (S)-2-(1-((6-amino-5-(1-methyl-1H-1,2,4-triazol-3-yl)pyrimidin-4-yl)amino)propyl)-3-cyclopropyl-5-fluoroquinazolin-4(3H)-one] | 74.5 min | 33.4 mL/min/kg | 66.3 min | 37.4 mL/min/kg | 37 mL/min/kg | 45.8% | 443 ng·h/mL | 128 min | 2.5 L/kg |  | 2290 nM |
| CC[C@H](Nc1ncnc(N)c1-c1nnc(C)o1)c1nc2cccc(F)c2c(=O)n1-c1ccccc1 [Ex. 40, (S)-2-(1-((6-amino-5-(5-methyl-1,3,4-oxadiazol-2-yl)pyrimidin-4-yl)amino)-propyl)-5-fluoro-3-phenylquinazolin-4(3H)-one] | 28 min | 62.1 mL/min/kg | 12.6 min | 198 mL/min/kg | 57.3 mL/min/kg | 112% | 292 ng·h/mL | 40.2 min | 2.99 L/kg |  | 93 nM |
| CC[C@H](Nc1ncnc(N)c1-c1ncn(C)n1)c1nc2cccc(Cl)c2c(=O)n1-c1ccccc1 [Ex. 32, (S)-2-(1-((6-amino-5-(1-methyl-1H-1,2,4-triazol-3-yl)pyrimidin-4-yl)amino)-propyl)-5-chloro-3-phenylquinazolin-4(3H)-one] | 17.4 min | 100 mL/min/kg | 20 min | 124 mL/min/kg | 43.3 mL/min/kg | 61% | 390 ng·h/mL | 37.8 min | 1.51 L/kg |  | 70 nM |

Now those with a lower IC50 (PI3K (p110δ/p85α) (h)), led by results:

| half-life at 5 μM [1] | CLint scaled at 5 μM [1] | half-life at 5 μM [2] | CLint scaled at 5 μM [2] | clearance (CL) [3] | bioavailability [3] | AUC(0-t) [3] | half-life [3] | Vd [3] | IC50 (PI3K (p110β/p85α) (h)) | IC50 (PI3K (p110δ/p85α) (h)) | SMILES |
| --- | --- | --- | --- | --- | --- | --- | --- | --- | --- | --- | --- |
| 25.4 min | 97.7 mL/min/kg | 25 min | 99.3 mL/min/kg | 55.8 mL/min/kg | 57.5% | 292 ng·h/mL | 96.6 min | 6.24 L/kg |  | 19 nM | CC[C@H](Nc1ncnc(N)c1-c1nc(C)no1)c1nc2cccc(C)c2c(=O)n1C1CC1 [Ex. 21, (S)-2-(1-((6-amino-5-(3-methyl-1,2,4-oxadiazol-5-yl)pyrimidin-4-yl)amino)-propyl)-3-cyclopropyl-5-methylquinazolin-4(3H)-one] |
| 20.6 min | 84.6 mL/min/kg | 31 min | 80.2 mL/min/kg | 31.8 mL/min/kg | 48.9% | 518 ng·h/mL | 76.8 min | 3.14 L/kg |  | 48 nM | CC[C@H](Nc1ncnc(N)c1-c1noc(C)n1)c1nc2cccc(Cl)c2c(=O)n1C1CC1 [Ex. 12, (S)-2-(1-((6-amino-5-(5-methyl-1,2,4-oxadiazol-3-yl)pyrimidin-4-yl)amino)-propyl)-5-chloro-3-cyclopropylquinazolin-4(3H)-one] |
| 9.96 min | 249 mL/min/kg | 9.27 min | 268 mL/min/kg | 77.3 mL/min/kg | 79% | 215 ng·h/mL | 63 min | 6.35 L/kg |  | 49 nM | CC[C@H](Nc1ncnc(N)c1-c1nnc(C)o1)c1nc2cccc(C)c2c(=O)n1C1CC1 [Ex. 20, (S)-2-(1-((6-amino-5-(5-methyl-1,3,4-oxadiazol-2-yl)pyrimidin-4-yl)amino)propyl)-3-cyclopropyl-5-methylquinazolin-4(3H)-one] |
| 18.2 min | 95.2 mL/min/kg | 10.4 min | 239 mL/min/kg | 83 mL/min/kg | 12.1% | 199 ng·h/mL | 59.4 min | 5.84 L/kg |  | 6 nM | CC(C)c1noc(-c2c(N)ncnc2N[C@@H](C)c2nc3cccc(Cl)c3c(=O)n2C2CC2)n1 [Ex. 57, (S)-2-(1-((6-amino-5-(3-isopropyl-1,2,4-oxadiazol-5-yl)pyrimidin-4-yl)amino)-ethyl)-5-chloro-3-cyclopropylquinazolin-4(3H)-one] |
| 44.3 min | 56 mL/min/kg | 56.9 min | 43.7 mL/min/kg | 71.3 mL/min/kg | 34.1% | 237 ng·h/mL | 56.4 min | 5.02 L/kg |  | 52 nM | CC[C@H](Nc1ncnc(N)c1-c1nc(C)no1)c1nc2cccc(F)c2c(=O)n1C1CC1 [Ex. 23, (S)-2-(1-((6-amino-5-(3-methyl-1,2,4-oxadiazol-5-yl)pyrimidin-4-yl)amino)-propyl)-3-cyclopropyl-5-fluoroquinazolin-4(3H)-one] |
| 6.66 min | 261 mL/min/kg | 3.36 min | 739 mL/min/kg | 73.7 mL/min/kg | 3.27% | 229 ng·h/mL | 115 min | 7.32 L/kg |  | 20 nM | CC(C)c1nc(-c2c(N)ncnc2N[C@@H](C)c2nc3cccc(Cl)c3c(=O)n2C2CC2)no1 [Ex. 59, (S)-2-(1-((6-amino-5-(5-isopropyl-1,2,4-oxadiazol-3-yl)pyrimidin-4-yl)amino)ethyl)-5-chloro-3-cyclopropylquinazolin-4(3H)-one] |
| 14.9 min | 167 mL/min/kg | 16.3 min | 152 mL/min/kg | 61.7 mL/min/kg | 49.8% | 263 ng·h/mL | 111 min | 6.11 L/kg |  | 13 nM | CC[C@H](Nc1ncnc(N)c1-c1nc(C)no1)c1nc2cccc(C)c2c(=O)n1-c1ccccc1C [Ex. 27, (S)-2-(1-((6-amino-5-(3-methyl-1,2,4-oxadiazol-5-yl)pyrimidin-4-yl)amino)-propyl)-5-methyl-3-(o-tolyl)quinazolin-4(3H)-one] |
| 5.3 min | 328 mL/min/kg | 7.2 min | 345 mL/min/kg | 67.5 mL/min/kg | 24.6% | 246 ng·h/mL | 80.4 min | 4.9 L/kg |  | 6 nM | CC[C@H](Nc1ncnc(N)c1-c1nc(C)no1)c1nc2cccc(C)c2c(=O)n1-c1ccccc1 [Ex. 37, (S)-2-(1-((6-amino-5-(3-methyl-1,2,4-oxadiazol-5-yl)pyrimidin-4-yl)amino)-propyl)-5-methyl-3-phenylquinazolin-4(3H)-one] |
